Positions of bridges follow the written chain, without caps; N, C: chain ends. Non-standard residues stand in square brackets, D forms with d. Residues, ends and D or L forms follow the SMILES beside them. hArg = N=C(N)NCCCC[C@H](N)C(=O)O; Mpa = O=C(O)CCS
What was measured:
αVβ3^N/S [1] = target: T1, αVβ3^N/S (Homo sapiens, UniProt P05106+P06756, N365S); experiment: biochemical; details: IC50, inhibition of fibrinogen binding to αVβ3^N/S, HEK293 cells, constitutively active αVβ3^N/S
αVβ3 = experiment: AP5 LIBS expression on αVβ3^N/S or Mn2+-activated αVβ3 in presence of R-epti-D; type: cell-based; details: αVβ3^N/S in Ca2+/Mg2+ or Mn2+-activated αVβ3; preliminary study
Method: FIG. 16. […] One experiment was done under each condition. […] Common residues are in black. […] Spheres represent the metal ion at MIDAS.
K562-αVβ3 cells, transiently transfected HEK293T or αVβ3^+M21 cells (0.5×10^6 in 100 μl WB) were incubated in the absence or presence of unlabeled soluble FN10 (5 μg) in Ca^2+/Mg^2+ or in Mn^2+ (30 min; at 25° C.). Alexa647-labeled AP5 Fab (plus Alexa488-labeled AP3, when HEK293T cells were used), unlabeled anti-LIBS-1 (all to 10 μg/ml) or LIBS-6 ascites (to 1:50 dilution) were added, and the cells incubated for an additional 30 min before washing. APC-labeled goat anti-mouse Fc-specific antibody was added to anti-LIBS-1- or anti-LIBS-6-bound M21 cells, cells were incubated for an additional 30 min at 4° C. then washed, resuspended, fixed in 4% paraformaldehyde and analyzed by flow cytometry. LIBS epitope expression was measured and expressed as MFI (in case of K562-αVβ3 or M21 cells) and normalized (in case of HEK293T cells) by dividing its MFI by the MFI for Alexa488-labeled AP3, and multiplied by 100.

platelet integrin αIIbβ3 = platelet integrin αIIbβ3 (Homo sapiens, UniProt P05106+P08514); details: parenteral use; cited from earlier work
platelet integrin αIIbβ3, sequence (P08514 32-887 limits assumed): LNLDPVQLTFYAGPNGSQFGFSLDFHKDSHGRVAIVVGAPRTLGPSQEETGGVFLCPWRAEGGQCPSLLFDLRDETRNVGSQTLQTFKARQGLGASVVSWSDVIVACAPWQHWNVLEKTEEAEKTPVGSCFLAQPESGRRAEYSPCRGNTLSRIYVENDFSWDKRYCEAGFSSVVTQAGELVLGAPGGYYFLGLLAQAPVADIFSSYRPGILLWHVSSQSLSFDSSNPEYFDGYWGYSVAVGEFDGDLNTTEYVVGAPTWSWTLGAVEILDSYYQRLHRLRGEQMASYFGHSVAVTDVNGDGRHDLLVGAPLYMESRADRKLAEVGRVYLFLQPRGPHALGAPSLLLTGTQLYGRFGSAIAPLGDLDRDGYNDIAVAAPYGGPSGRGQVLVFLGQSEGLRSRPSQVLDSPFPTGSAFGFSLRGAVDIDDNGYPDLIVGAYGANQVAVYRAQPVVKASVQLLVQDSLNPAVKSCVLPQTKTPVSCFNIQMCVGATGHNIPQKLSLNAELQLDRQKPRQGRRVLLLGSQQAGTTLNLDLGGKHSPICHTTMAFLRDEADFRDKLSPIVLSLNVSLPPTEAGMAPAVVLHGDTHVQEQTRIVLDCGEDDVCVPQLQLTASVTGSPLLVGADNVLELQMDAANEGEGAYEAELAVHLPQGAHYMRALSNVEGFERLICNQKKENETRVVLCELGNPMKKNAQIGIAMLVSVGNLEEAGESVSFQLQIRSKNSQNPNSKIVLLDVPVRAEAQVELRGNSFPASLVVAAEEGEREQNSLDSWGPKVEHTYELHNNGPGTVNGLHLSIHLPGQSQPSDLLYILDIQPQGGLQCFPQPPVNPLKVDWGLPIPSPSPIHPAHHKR
platelet integrin αIIbβ3, sequence (P08514 891-1039 partner limits assumed): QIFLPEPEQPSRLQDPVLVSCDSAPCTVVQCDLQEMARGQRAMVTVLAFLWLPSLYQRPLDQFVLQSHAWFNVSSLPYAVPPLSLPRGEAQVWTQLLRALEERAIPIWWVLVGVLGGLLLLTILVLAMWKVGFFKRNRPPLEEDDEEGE
platelet integrin αIIbβ3, sequence (P05106 27-788): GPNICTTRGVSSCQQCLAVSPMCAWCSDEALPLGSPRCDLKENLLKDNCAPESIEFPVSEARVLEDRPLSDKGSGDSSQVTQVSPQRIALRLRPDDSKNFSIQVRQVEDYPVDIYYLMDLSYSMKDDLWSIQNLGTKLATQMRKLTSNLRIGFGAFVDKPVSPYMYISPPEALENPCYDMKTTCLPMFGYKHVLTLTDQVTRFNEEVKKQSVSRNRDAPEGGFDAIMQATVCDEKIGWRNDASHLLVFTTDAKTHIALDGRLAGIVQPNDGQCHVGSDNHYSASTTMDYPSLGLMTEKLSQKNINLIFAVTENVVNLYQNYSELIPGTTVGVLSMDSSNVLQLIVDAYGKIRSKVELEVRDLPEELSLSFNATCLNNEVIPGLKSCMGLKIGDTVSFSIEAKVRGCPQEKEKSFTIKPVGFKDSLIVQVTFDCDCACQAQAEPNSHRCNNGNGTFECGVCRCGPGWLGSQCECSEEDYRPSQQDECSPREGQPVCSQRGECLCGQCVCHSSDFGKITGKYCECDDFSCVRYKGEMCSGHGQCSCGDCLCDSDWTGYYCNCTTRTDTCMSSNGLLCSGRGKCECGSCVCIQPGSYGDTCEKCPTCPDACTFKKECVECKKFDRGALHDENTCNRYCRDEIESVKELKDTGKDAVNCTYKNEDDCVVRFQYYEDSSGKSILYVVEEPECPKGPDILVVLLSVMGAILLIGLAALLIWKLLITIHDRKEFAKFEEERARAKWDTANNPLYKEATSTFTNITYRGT

αVβ3^N/S [2] = target: T1, αVβ3^N/S

T1 sequence (P06756 31-889 limits assumed): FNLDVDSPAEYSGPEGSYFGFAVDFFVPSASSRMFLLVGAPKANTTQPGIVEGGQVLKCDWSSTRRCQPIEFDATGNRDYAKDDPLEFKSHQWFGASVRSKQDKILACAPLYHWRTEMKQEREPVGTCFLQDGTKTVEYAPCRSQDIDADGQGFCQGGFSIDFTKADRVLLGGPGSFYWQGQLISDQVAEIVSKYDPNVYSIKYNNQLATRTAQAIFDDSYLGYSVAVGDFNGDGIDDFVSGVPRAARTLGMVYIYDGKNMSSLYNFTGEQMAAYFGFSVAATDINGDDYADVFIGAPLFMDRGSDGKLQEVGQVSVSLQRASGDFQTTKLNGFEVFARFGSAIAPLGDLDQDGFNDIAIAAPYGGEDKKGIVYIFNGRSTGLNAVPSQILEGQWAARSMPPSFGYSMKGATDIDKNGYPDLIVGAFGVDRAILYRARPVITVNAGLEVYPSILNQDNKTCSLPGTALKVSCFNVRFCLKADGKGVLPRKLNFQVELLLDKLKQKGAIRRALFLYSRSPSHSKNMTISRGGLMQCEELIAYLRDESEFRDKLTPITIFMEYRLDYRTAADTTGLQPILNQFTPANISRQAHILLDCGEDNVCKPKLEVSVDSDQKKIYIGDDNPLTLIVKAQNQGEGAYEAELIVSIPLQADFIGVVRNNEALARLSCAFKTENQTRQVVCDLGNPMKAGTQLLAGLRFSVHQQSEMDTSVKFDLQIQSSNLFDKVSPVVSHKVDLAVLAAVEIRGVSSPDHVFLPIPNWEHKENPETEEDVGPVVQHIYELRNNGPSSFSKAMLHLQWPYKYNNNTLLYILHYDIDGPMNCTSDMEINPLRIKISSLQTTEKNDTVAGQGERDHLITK
T1 sequence (P06756 891-1048 partner limits assumed): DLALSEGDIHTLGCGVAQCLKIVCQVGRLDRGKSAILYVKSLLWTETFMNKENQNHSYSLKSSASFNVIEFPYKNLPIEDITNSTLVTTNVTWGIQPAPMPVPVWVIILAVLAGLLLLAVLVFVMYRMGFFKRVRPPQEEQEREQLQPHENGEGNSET
T1 sequence (P05106 27-788 N365S): as the sequence (P05106 27-788) above, with N339S counted along it

SMILES	IC50 (αVβ3^N/S [1])	IC50 (αVβ3^N/S [1]; converted)	AP5 LIBS expression (αVβ3)	Patients with severe thrombocytopenia (platelet integrin αIIbβ3)	Binding to αVβ3 (αVβ3^N/S [2])
N=C(N)NCCC[C@@H]1NC(=O)CCSSC[C@@H](C(N)=O)NC(=O)[C@@H]2CCCN2C(=O)[C@@H](Cc2c[nH]c3ccccc23)NC(=O)[C@H](CC(=O)O)NC(=O)CNC1=O [R-epti-D] ([Mpa]RGD[dW]PC-NH2; disulfide 1-7)	2.08 µM	~2 µM	reduced AP5 LIBS expression	–	–
N=C(N)NCCCC[C@@H]1NC(=O)CCSSC[C@@H](C(N)=O)NC(=O)[C@@H]2CCCN2C(=O)[C@H](Cc2c[nH]c3ccccc23)NC(=O)[C@H](CC(=O)O)NC(=O)CNC1=O [eptifibatide] ([Mpa][hArg]GDWPC-NH2; disulfide 1-7)	–	–	–	~2%	does not bind

From patent publication US10533044B2, “Integrin Antagonists” (The General Hospital Corporation, priority 2014, dated 2020)
